These results are taken from patent US12060349B2, “Glucosylceramide synthase inhibitors” (Genzyme Corporation, priority 2012, dated 2024).

The structures appear in SMILES notation. pIC50: −log10 of the molar value. Where two headings read alike, the source gives them in different places.

Assay [1] deals with T1, glucosylceramide synthase (Homo sapiens, UniProt Q16739).
T1 construct: Microsomes were isolated from A375 human melanoma cells; endogenous in cells; host or cells: A375 human melanoma cells (microsomal fraction, 100,000 g pellet)
T1 sequence (Q16739 1-394): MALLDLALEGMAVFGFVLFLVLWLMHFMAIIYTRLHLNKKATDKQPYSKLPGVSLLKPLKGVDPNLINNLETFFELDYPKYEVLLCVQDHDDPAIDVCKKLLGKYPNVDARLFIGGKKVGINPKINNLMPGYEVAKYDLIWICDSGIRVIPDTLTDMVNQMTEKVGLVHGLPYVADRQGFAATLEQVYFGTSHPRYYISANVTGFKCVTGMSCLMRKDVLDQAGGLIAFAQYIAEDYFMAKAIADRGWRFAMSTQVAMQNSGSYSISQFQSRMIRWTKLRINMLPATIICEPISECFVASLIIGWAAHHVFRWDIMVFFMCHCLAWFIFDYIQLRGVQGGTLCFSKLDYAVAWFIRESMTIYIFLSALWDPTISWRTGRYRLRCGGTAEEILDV
Kind of assay: microsomal assay measuring conversion of ceramide to glucosylceramide by HPLC (GCS IC50). In kind it is biochemical. Particulars: concentration causing 50% inhibition of glucosylceramide synthase activity. The procedure, abridged: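 Microsomal preparation assayed for glucosylceramide synthase by direct HPLC measurement of ceramide conversion to glucosylceramide. GCS IC50 is the compound concentration giving 50% inhibition of enzyme activity.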

For assay [2], the system named is GM3 expression on the cell surface, B16 mouse melanoma cells. Kind of assay: cell based phenotypic assay, cell surface GM3 by antibody mediated immunofluorescence, B16 (GM3 B16 IC50). Particulars: Mus musculus, 50% inhibition of GM3 expression on the cell surface. The procedure, abridged:
(§1)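 Both lines undergo the phenotypic GM3 assay, and viability is recorded from that same cell-based run.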

Assay [3] concerns GM3 expression on the cell surface, C32 human melanoma cells. The assay can be described thus: cell based phenotypic assay, cell surface GM3 by antibody mediated immunofluorescence, C32 (GM3 C32 IC50). Particulars: Homo sapiens, 50% inhibition of GM3 expression on the cell surface. The procedure, abridged: as §1
The test system of assay [4] is B16 mouse melanoma cells. Kind of assay: cell viability in the B16 cell-based assay (Viability, B16 IC50). Particulars: Mus musculus. In a few lines:
as §1

Assay [5] concerns C32 human melanoma cells. The assay can be described thus: cell viability in the C32 cell-based assay (Viability, C32 IC50). To be noted: Homo sapiens, concentration causing 50% cell death, values greater than 10 represent a lack of cell death. In a few lines:
as §1

The mark [6] stands for this setting: B16 mouse melanoma cells, read-out: GM3 B16 IC50.
The mark [7] stands for this setting: C32 human melanoma cells, read-out: GM3 C32 IC50.
Setting [8] is: B16, B16 cells, concentration causing 50% cell death, values greater than 10 represent a lack of cell death, read-out: Viability, B16 IC50.
[9] abbreviates: C32, C32 cells, read-out: Viability, C32 IC50.
Where [10] appears, read: read-out: GM3 B16 IC50, B16 mouse melanoma cells.
The mark [11] stands for this setting: read-out: GM3 C32 IC50, C32 human melanoma cells.
[12] abbreviates: B16, read-out: Viability, B16 IC50.
Where [13] appears, read: C32, read-out: Viability, C32 IC50, C32 cells.

The term pIC50 denotes the IC50 on a negative log10 scale, so that one unit is a factor of ten. In the case of `CC(C)(NC(=O)NC1(C)CN2CCC1CC2)c1ccc(-c2ccc(OCCn3cccn3)cc2)cc1` (stereo not drawn) [Example 180, 1-(2-(4′-(2-(1H-Pyrazol-1-yl)ethoxy)-[1,1′-biphenyl]-4-yl)propan-2-yl)-3-(3-methylquinuclidin-3-yl)urea], the pIC50 in assay [1] was 8.28; in assay [2] (setting [6]), 7.33; in assay [3] (setting [7]) it was 8.74; in assay [4] (setting [8]), 5.50; in assay [5] (setting [9]), 5.50.
`CC(C)(NC(=O)NC1(C)CCN2CCC1CC2)c1ccc(-c2ccc(OCCn3cccn3)cc2)cc1` (stereo not drawn) [Example 181, 1-(2-(4′-(2-(1H-Pyrazol-1-yl)ethoxy)-[1,1′-biphenyl]-4-yl)propan-2-yl)-3-(4-methyl-1-azabicyclo[3.2.2]nonan-4-yl)urea]: the pIC50 in assay [1] was 8.63; in assay [2] (setting [6]), 8.29; in assay [3] (setting [7]), 9.23; in assay [4] (setting [8]), 6.00; in assay [5] (setting [9]) it was 6.00.
With `CC(C)(NC(=O)OC1CN2CCC1CC2)c1ccc(-c2ccc(OCCn3ccnn3)cc2)cc1` (stereo not drawn) [Example 182, Quinuclidin-3-yl (2-(4′-(2-(1H-1,2,3-triazol-1-yl)ethoxy)-[1,1′-biphenyl]-4-yl)propan-2-yl)carbamate], the pIC50 was 7.37 in assay [1]; 6.41 in assay [2] (setting [10]); 7.88 in assay [3] (setting [11]); 5.50 in assay [4] (setting [12]); 6.00 in assay [5] (setting [13]).
Consider `CC(C)(NC(=O)NC1(C)CN2CCC1CC2)c1ccc(-c2ccc(OCCn3ccnn3)cc2)cc1` (stereo not drawn) [Example 183, 1-(2-(4′-(2-(1H-1,2,3-Triazol-1-yl)ethoxy)-[1,1′-biphenyl]-4-yl)propan-2-yl)-3-(3-methylquinuclidin-3-yl)urea], for which the pIC50 in assay [1] is 7.50; in assay [2] (setting [6]) it was 6.01; in assay [3] (setting [7]) it was 7.99; in assay [4] (setting [8]) it was 5.25; in assay [5] (setting [9]), 5.60.
Turning to `CCC1(NC(=O)NC(C)(C)c2ccc(-c3ccc(OCCn4ccnn4)cc3)cc2)CN2CCC1CC2` (stereo not drawn) [Example 184, 1-(2-(4′-(2-(1H-1,2,3-Triazol-1-yl)ethoxy)-[1,1′-biphenyl]-4-yl)propan-2-yl)-3-(3-ethylquinuclidin-3-yl)urea], the pIC50 in assay [1] was 7.68; in assay [2] (setting [6]), 6.73; in assay [3] (setting [7]), 8.46; in assay [4] (setting [8]), 5.50; in assay [5] (setting [9]), 6.00.
Take `CC(C)(NC(=O)NC1(C)CCN2CCC1CC2)c1ccc(-c2ccc(OCCn3ccnn3)cc2)cc1` (stereo not drawn) [Example 185, 1-(2-(4′-(2-(1H-1,2,3-Triazol-1-yl)ethoxy)-[1,1′-biphenyl]-4-yl)propan-2-yl)-3-(4-methyl-1-azabicyclo[3.2.2]nonan-4-yl)urea]: the pIC50 is 7.89 in assay [1]; 7.00 in assay [2] (setting [6]); 8.41 in assay [3] (setting [7]); 5.50 in assay [4] (setting [8]); 6.00 in assay [5] (setting [9]).
With `CC(C)(NC(=O)OC1CCN2CCC1CC2)c1ccc(-c2ccc(OCCCn3ccnn3)cc2)cc1` (stereo not drawn) [Example 187, 1-Azabicyclo[3.2.2]nonan-4-yl (2-(4′-(3-(1H-1,2,3-triazol-1-yl)propoxy)-[1,1′-biphenyl]-4-yl)propan-2-yl)carbamate], the pIC50 in assay [1] is 7.69; in assay [2] (setting [6]), 6.97; in assay [3] (setting [7]) it was 8.11; in assay [4] (setting [8]), no more than 5.00; in assay [5] (setting [9]), 6.00.
For `CC(C)(NC(=O)N1CCN2CCC1CC2)c1ccc(-c2ccc(OCCCn3ccnn3)cc2)cc1` [Example 188, N-(2-(4′-(3-(1H-1,2,3-Triazol-1-yl)propoxy)-[1,1′-biphenyl]-4-yl)propan-2-yl)-1,4-diazabicyclo[3.2.2]nonane-4-carboxamide], the pIC50 in assay [1] is 6.22; in assay [2] (setting [6]), 6.44; in assay [3] (setting [7]) it was 7.11; in assay [4] (setting [8]) it was no more than 5.00; in assay [5] (setting [9]), 6.00.
On to `CC(C)(NC(=O)OC1CN2CCC1CC2)c1ccc(-c2ccc(OCCCC#N)cc2)cc1` (stereo not drawn) [Example 189, Quinuclidin-3-yl (2-(4′-(3-cyanopropoxy)-[1,1′-biphenyl]-4-yl)propan-2-yl)carbamate], for which the pIC50 in assay [1] is 8.02; in assay [2] (setting [10]), 7.06; in assay [3] (setting [11]), 8.49; in assay [4] (setting [12]), no more than 5.00; in assay [5] (setting [13]), 5.07.
The matching figures for `CC(C)(NC(=O)OC1CN2CCC1CC2)c1ccc(-c2ccc(OCC#N)cc2)cc1` (stereo not drawn) [Example 190, Quinuclidin-3-yl (2-(4′-(cyanomethoxy)-[1,1′-biphenyl]-4-yl)propan-2-yl)carbamate]: 8.59, 7.32, 9.11, no more than 5.00 and 6.00.
For the molecule `CC1(COc2ccc(-c3ccc(C(C)(C)NC(=O)OC4CN5CCC4CC5)cc3)cc2)COC1` (stereo not drawn) [Example 191, Quinuclidin-3-yl (2-(4′-((3-methyloxetan-3-yl)methoxy)-[1,1′-biphenyl]-4-yl)propan-2-yl)carbamate], the pIC50 in assay [1] is 8.14; in assay [2] (setting [10]), 7.14; in assay [3] (setting [11]) it was 8.49; in assay [4] (setting [12]), 5.28; in assay [5] (setting [13]), 6.00.
Take `CC1(COc2ccc(-c3ccc(C(C)(C)NC(=O)OC4CCN5CCC4CC5)cc3)cc2)COC1` (stereo not drawn) [Example 192, 1-Azabicyclo[3.2.2]nonan-4-yl (2-(4′-((3-methyloxetan-3-yl)methoxy)-[1,1′-biphenyl]-4-yl)propan-2-yl)carbamate]: the pIC50 in assay [1] is 8.24; in assay [2] (setting [6]), 7.09; in assay [3] (setting [7]) it was 8.73; in assay [4] (setting [8]), 5.23; in assay [5] (setting [9]) it was 6.00.
Regarding `CC1(COc2ccc(-c3ccc(C(C)(C)NC(=O)N4CCN5CCC4CC5)cc3)cc2)COC1` [Example 193, N-(2-(4′-((3-Methyloxetan-3-yl)methoxy)-[1,1′-biphenyl]-4-yl)propan-2-yl)-1,4-diazabicyclo[3.2.2]nonane-4-carboxamide], the pIC50 in assay [1] was 6.53; in assay [2] (setting [6]), 6.50; in assay [3] (setting [7]), 7.35; in assay [4] (setting [8]) it was no more than 5.00; in assay [5] (setting [9]), no more than 5.00.
As for `CC(C)(NC(=O)OC1CN2CCC1CC2)c1ccc(-c2ccc(OCCC3COC3)cc2)cc1` (stereo not drawn) [Example 194, Quinuclidin-3-yl (2-(4′-(2-(oxetan-3-yl)ethoxy)-[1,1′-biphenyl]-4-yl)propan-2-yl)carbamate], the pIC50 in assay [1] is 7.98; in assay [2] (setting [10]), 6.94; in assay [3] (setting [11]) it was 8.39; in assay [4] (setting [12]) it was 5.00; in assay [5] (setting [13]), 6.00.
With `CC(C)(NC(=O)OC1CCN2CCC1CC2)c1ccc(-c2ccc(OCCC3COC3)cc2)cc1` (stereo not drawn) [Example 195, 1-Azabicyclo[3.2.2]nonan-4-yl (2-(4′-(2-(oxetan-3-yl)ethoxy)-[1,1′-biphenyl]-4-yl)propan-2-yl)carbamate], the pIC50 was 8.25 in assay [1]; 7.02 in assay [2] (setting [6]); 9.00 in assay [3] (setting [7]); 5.10 in assay [4] (setting [8]); 7.00 in assay [5] (setting [9]).
Consider `CC(C)(NC(=O)N1CCN2CCC1CC2)c1ccc(-c2ccc(OCCC3COC3)cc2)cc1` [Example 196, N-(2-(4′-(2-(Oxetan-3-yl)ethoxy)-[1,1′-biphenyl]-4-yl)propan-2-yl)-1,4-diazabicyclo[3.2.2]nonane-4-carboxamide], for which the pIC50 in assay [1] was 6.27; in assay [2] (setting [6]), 6.56; in assay [3] (setting [7]), 7.55; in assay [4] (setting [8]) it was no more than 5.00; in assay [5] (setting [9]) it was 6.00.
As to `COCCOCc1ccc(-c2ccc(C(C)(C)NC(=O)OC3CN4CCC3CC4)cc2)cc1` (stereo not drawn) [Example 197, Quinuclidin-3-yl (2-(4′-((2-methoxyethoxy)methyl)-[1,1′-biphenyl]-4-yl)propan-2-yl)carbamate], the pIC50 in assay [1] was 7.49; in assay [2] (setting [10]) it was 6.51; in assay [3] (setting [11]) it was 8.01; in assay [4] (setting [12]), no more than 5.00; in assay [5] (setting [13]) it was no more than 5.00.
As for `COCCOCc1ccc(-c2ccc(C(C)(C)NC(=O)NC3(C)CN4CCC3CC4)cc2)cc1` (stereo not drawn) [Example 198, 1-(2-(4′-((2-Methoxyethoxy)methyl)-[1,1′-biphenyl]-4-yl)propan-2-yl)-3-(3-methylquinuclidin-3-yl)urea], the pIC50 in assay [1] is 7.60; in assay [2] (setting [6]), 6.93; in assay [3] (setting [7]) it was 8.49; in assay [4] (setting [8]), no more than 5.00; in assay [5] (setting [9]), no more than 5.00.
